The values that follow come from US8697366B2, “Anti-cancer drug screening method using RORα” (Seoul National University Industry Foundation, priority 2009, dated 2014).

Format in all cases: cell-based
One test concerns cyclin D1 transcript. The test is described as follows: Real-time quantitative RT-PCR of the cyclin D1 transcript in HCT116 cells. On the procedure:
The abundance of mRNA was detected by an ABI prism 7300 system with SYBR Green (molecular probes). Primer pairs were designed to amplify 90-150 bp mRNA specific fragments, and confirmed to be unique products by melting curve analysis. The PCR conditions were 95° C. (5 min) and 40 cycles of 95° C. (30 s), 57° C. (30 s), and 72° C. (30 s).
The quantity of mRNA was calculated using the ΔΔCt method and normalized by using primers to detect β-actin or HPRT. All reactions were performed in triplicates.

A further test has as its system RORα. As to the kind of experiment: Phosphorylation of RORα in HCT116 cells (immunoprecipitation / immunoblot with anti-phospho-Ser or anti-phospho-RORαS35 antibody). On the procedure: (A) Schematic representation of RORα showing the location of the N-terminal domain (NTD), the DNA-binding domain (DBD), the hinge region, the ligand-binding domain (LBD), and the AF-2 domain. […] HEK293 cells were cotransfected with plasmids expressing each His-tagged RORα deletion construct and β-catenin. Whole cell extracts (left panel) and Ni^+-NTA-agarose pulldown materials (right panel) were analyzed by immunoblotting against anti-β-catenin IgG or anti-Xpress IgG. (C) Illustration of the structure of deletion fragments of RORα(SEQ ID NO:17). (D) Interaction of each RORα deletion construct with HisMax-β-catenin was assessed by Ni^+-NTA-agarose pulldown assay. […] The phosphorylated peptide samples were analyzed by LC-MS analysis. […] Immunoprecipitation assay was conducted with anti-Flag antibody, and the phosphorylated RORα was detected by immunoblot analysis with anti-phospho-Ser antibody. […] The reaction samples were subjected to 12% SDSPAGE, and phosphorylated RORα was detected by autoradiography. […] The fluorescence-conjugated secondary antibody was visualized using fluorescence microscopy, and nuclear staining with DAPI was shown.
(A) The specificity of the antibody raised against phosphorylated RORαS35 peptide (SEQ ID NO:18) was assessed by dot blot analysis. (B) Treatment of TPA increased phophorylated RORα on S35 site as assessed by immunoprecipitation with anti-phospho-RORαS35 antibody. […]

The test system of test [1] is binding of RORα to β-catenin. The test is described as follows: Coimmunoprecipitation of RORα with β-catenin in HCT116 cells. On the procedure:
(§1) (A) The specificity of the antibody raised against phosphorylated RORαS35 peptide (SEQ ID NO:18) was assessed by dot blot analysis. (B) Treatment of TPA increased phophorylated RORα on S35 site as assessed by immunoprecipitation with anti-phospho-RORαS35 antibody. […] (D) Treatment of Go6976, a PKCα inhibitor, abolished TPA-dependent phosphorylation of RORα as assessed by immonoblotting with anti-phospho-RORαS35 antibody. (E) HCT116 cells were transfected with Flag-RORα WT, S35D, or S35A, and the cell extracts were immunoprecipitated with anti-Flag antibody followed by immunoblotting against anti-β-catenin antibody. (F) Coimmunoprecipitation assay of β-catenin with either RORαWT or S35A in HCT116 cells after treatment with TPA in the absence or presence of Go6976. (G) ChIP analysis on the cyclin D1 promoter after transfection with Flag-RORαWT, S35A, or S35D in HCT116 cells. (H) ChIP analysis on the cyclin D1 promoter in HCT116 cells after TPA treatment for indicated time. (I) ChIP assay was performed on the cyclin D1 promoter in the absence or presence of siRNA against PKCα with treatment of TPA for 90 min. (J) Real-time quantitative RT-PCR analysis of the cyclin D1 transcript in HCT116 cells in the presence of TPA for indicated time. (K) Knockdown effect of siRNA against RORα or PKCα was assessed in the expression of the cyclin D1 transcript in HCT116 cells.

In another test the test system is cyclin D1 promoter. The test is described as follows: ChIP assay on the cyclin D1 promoter in HCT116 cells. On the procedure: as §1
(B) Cyclin D1 transcript was measured after introducing siRNAs against RORα or PKCα in the presence of Wnt5a in HCT116 cells. (C) Real-time quantitative RTPCR analysis of the cyclin D1 transcript in HCT116 cells after introducing RORα, S35A, or S35D in the presence of Wnt5a. (D) […] on the cyclin D1 promoter with treatment of either TPA or Wnt5a in HCT116 cells. Occupancy of the cyclin D1 promoter by phosphorylated RORα, β-catenin, RNA polymerase II, H3K9me2, H3K4me2, CBP, pCAF, p300, or SMRT was indicated. (E) Transwell cell migration assay for RORα, RORαS35A, or RORαS35D-expressing HCT116 cells with treatment of Wnt5a. Values are represented as mean±s.d. for three independent experiments. (F) The anchorage-independent growth of HCT116 cells expressing RORα, RORαS35A, or RORαS35D in soft agar. Values are expressed as mean±SEM for two experiments in 6 place wells. Colonies were counted in 10 different fields and total colony number/well was calculated. Representative image is shown for each group.
The ChIP, two-step ChIP, and shRNA-coupled ChIP assays were conducted as previously described (Baek et al., 2002; Kim et al., 2005).

Entries after “also recorded” stand apart in the source; their conditions may differ.

As for `CCCCCCCCCCCCCC(=O)O[C@@H]1[C@@H](C)[C@@]2(O)[C@@H](C=C(CO)C[C@]3(O)C(=O)C(C)=C[C@@H]23)[C@@H]2C(C)(C)[C@]12OC(C)=O` [TPA, 12-O-tetradecanoylphorbol-13acetate], the “cyclin D1 transcript” value in the test with cyclin D1 transcript is “downregulation”. In the test with RORα (HCT116 cells, treatment alone), the “phosphorylation of RORα” value is reported as “increased phosphorylation”. For the same compound, in test [1] (TPA treatment), the “binding of RORα to β-catenin” value is “significantly increased”. In the test with cyclin D1 promoter, the “RNA polymerase II recruitment on the cyclin D1 promoter” value is on record as “concomitant decrease; also recorded: decreased”; the “methylation of histone H3K9 on the cyclin D1 promoter” value is “increased methylation”; the “recruitment of CBP, p300, and pCAF coactivators to the cyclin D1 promoter” value is given as “significantly decreased”; the “recruitment of β-catenin on the cyclin D1 promoter” value was “not altered”. Also, in the test with cyclin D1 promoter (anti-phospho-RORαS35 IgG), the “recruitment of phosphorylated RORα on the cyclin D1 promoter” value was “increased the recruitment”.

`Cn1c2ccccc2c2c3c(c4c5ccccc5n(CCC#N)c4c21)CNC3=O` [Go6976]: in the test on RORα (in presence of TPA, anti-phospho-RORαS35 immunoblot), the “TPA-induced phosphorylation of RORα” value is on record as “abolished”. Moreover, the “TPA-induced increased binding of RORα to β-catenin” value in test [1] (TPA plus Go6976) is “almost completely abolished”.
